For assay [1], the target named is T1, catalytic domain (JH1, amino acids 826-1132) of human JAK2 (Homo sapiens, UniProt O60674).
T1 construct: catalytic domain (JH1, amino acids 826-1132) of human JAK2; FLAG (N); biotin (biotinylated); purchased Carna Biosciences 08-445-20N; host or cells: baculovirus expression system
Kind of assay: JAK2 LanthaScreen JH1 Binding Assay. As to conditions: JAK2 JH1 1.5 nM, 50 nM tracer, 2 hours at 25° C.; read-out: JH1 BIND. A digest of the protocol: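 TR-FRET tracer-displacement format: compound IC50 from four-parameter curves after 2 h at 25° C. Reaction held 1.5 nM biotinylated, FLAG-tagged JH1 (aa 826-1132), 50 nM tracer, 0.5 nM Streptavidin-Tb, pH 7.5 Tris buffer; 2 mM ATP set nonspecific background.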

In assay [2] the target is T2, pseudo-kinase domain (JH2, amino-acids 536-812) of human Wild Type JAK2 (Homo sapiens, UniProt O60674, F794H/W659A/W777A).
T2 construct: pseudo-kinase domain (JH2, amino-acids 536-812 with 3 surface mutations W659A, W777A, F794H); His (C); purchased BPS Bioscience 79463; host or cells: baculovirus expression system
Kind of assay: JAK2 LanthaScreen JH2-WT Binding Assay. As to conditions: JAK2 JH2-WT 0.145 nM, 50 nM tracer, 1 hour at 25° C.; read-out: JH2 BIND WT. The essentials: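 TR-FRET tracer displacement: IC50 from four-parameter dose-response fit. Reaction: compound, 0.145 nM biotinylated JH2 protein from baculovirus, 0.25 nM streptavidin-Tb and 50 nM tracer, 1 h at 25° C, 50 mM Tris pH 7.5 buffer. 2 mM ATP gave non-specific binding.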
(In TR-FRET formats the signal depends on donor and acceptor labels being close together.)

Assay [3] has as its target T3, pseudo-kinase domain (JH2, amino-acids 536-812) of human V617F mutant JAK2 (Homo sapiens, UniProt O60674, F794H/V617F/W659A/W777A).
T3 construct: pseudo-kinase domain (JH2, amino-acids 536-812 with 3 surface mutations W659A, W777A, F794H); His (C); purchased BPS Bioscience 79498; host or cells: baculovirus expression system
Kind of assay: JAK2 LanthaScreen JH2-V617F Binding Assay. The settings on record: JAK2 JH2-V617F 0.26 nM, 50 nM tracer, 1 hour at 25° C.; read-out: JH2 BIND V617F. A digest of the protocol: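 This is a TR-FRET tracer-displacement format with a 1 h, 25 °C incubation. It combined 0.26 nM baculovirus-expressed biotinylated JH2-V617F, 50 nM fluorescent JAK2-JH2 tracer and 0.25 nM streptavidin-Tb cryptate in 50 mM Tris pH 7.5, 10 mM MgCl2, 5 mM DTT. Background came from 2 mM ATP, and IC50 values were from four-parameter dose-response fits.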

For assay [4], the target named is catalytic domain (JH1, amino acids 808-1132) of human JAK2 (Homo sapiens, UniProt O60674). Kind of assay: JAK2 HTRF Enzyme Activity Assay. As to conditions: ATP 30 µM, 60 minutes at 25° C.; read-out: V617F ENZ 30 UM. It is filed as biochemical.
Sequence of catalytic domain (JH1, amino acids 808-1132) of human JAK2 (O60674 808-1132 limits assumed): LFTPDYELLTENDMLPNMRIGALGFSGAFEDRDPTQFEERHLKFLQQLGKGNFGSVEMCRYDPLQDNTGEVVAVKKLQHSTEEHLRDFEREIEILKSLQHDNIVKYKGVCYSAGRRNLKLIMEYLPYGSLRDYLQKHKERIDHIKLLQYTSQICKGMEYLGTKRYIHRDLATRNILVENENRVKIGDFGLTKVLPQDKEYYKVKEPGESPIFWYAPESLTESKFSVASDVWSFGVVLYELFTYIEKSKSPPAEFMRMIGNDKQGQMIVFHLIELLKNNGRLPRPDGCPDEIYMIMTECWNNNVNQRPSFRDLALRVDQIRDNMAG

T1 sequence (O60674 826-1132): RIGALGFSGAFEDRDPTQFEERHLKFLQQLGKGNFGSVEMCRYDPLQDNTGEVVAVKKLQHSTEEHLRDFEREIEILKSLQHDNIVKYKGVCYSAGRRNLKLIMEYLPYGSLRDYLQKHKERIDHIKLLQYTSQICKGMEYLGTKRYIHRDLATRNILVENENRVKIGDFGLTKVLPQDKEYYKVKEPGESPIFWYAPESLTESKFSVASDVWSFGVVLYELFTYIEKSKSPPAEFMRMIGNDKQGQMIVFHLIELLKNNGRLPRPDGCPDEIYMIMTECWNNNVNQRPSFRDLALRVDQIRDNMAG
T3 sequence (O60674 536-812 V617F/W659A/W777A/F794H): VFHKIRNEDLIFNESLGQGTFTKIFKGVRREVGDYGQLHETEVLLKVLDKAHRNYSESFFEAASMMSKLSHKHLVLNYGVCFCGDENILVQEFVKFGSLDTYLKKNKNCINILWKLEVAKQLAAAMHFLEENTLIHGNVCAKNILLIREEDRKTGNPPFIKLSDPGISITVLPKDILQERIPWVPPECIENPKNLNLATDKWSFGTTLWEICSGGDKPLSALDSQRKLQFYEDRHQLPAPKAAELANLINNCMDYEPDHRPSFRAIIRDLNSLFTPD
T2 sequence (O60674 536-812 W659A/W777A/F794H): as the sequence (O60674 536-812 V617F/W659A/W777A/F794H) above, with F82V counted along it

Take `COC(=O)N[C@@H]1CC[C@@H](n2c(=O)n(C)c3cnc(Nc4ccc5ncc(-c6cnn(C)c6)n5n4)cc32)C1` [Example 34, Methyl ((1R,3R)-3-(3-methyl-6-((3-(1-methyl-1H-pyrazol-4-yl)imidazo[1,2-b]pyridazin-6-yl)amino)-2-oxo-2,3-dihydro-1H-imidazo[4,5-c]pyridin-1-yl)cyclopentyl)carbamate]: the IC50 is greater than 1000 nM in assay [1], no more than 10 nM in assay [2], no more than 10 nM in assay [3] and greater than 1000 nM in assay [4].
`COC(=O)N[C@@H]1CC[C@@H](n2c(=O)n(C)c3cnc(Nc4ccn5nc(-c6cnn(C)c6)cc5n4)cc32)C1` [Example 35, Methyl ((1R,3R)-3-(3-methyl-6-((2-(1-methyl-1H-pyrazol-4-yl)pyrazolo[1,5-a]pyrimidin-5-yl)amino)-2-oxo-2,3-dihydro-1H-imidazo[4,5-c]pyridin-1-yl)cyclopentyl)carbamate]: the IC50 is greater than 1000 nM in assay [1], 10 to 100 nM in assay [2], 10 to 100 nM in assay [3] and greater than 1000 nM in assay [4].
For `COC(=O)N[C@@H]1CC[C@@H](n2c(=O)n(C)c3cnc(Nc4ccn5ncc(-c6cnn(C)c6)c5n4)cc32)C1` [Example 36, Methyl ((1R,3R)-3-(3-methyl-6-((3-(1-methyl-1H-pyrazol-4-yl)pyrazolo[1,5-a]pyrimidin-5-yl)amino)-2-oxo-2,3-dihydro-1H-imidazo[4,5-c]pyridin-1-yl)cyclopentyl)carbamate], the IC50 is greater than 1000 nM in assay [1], no more than 10 nM in assay [2], 10 to 100 nM in assay [3] and greater than 1000 nM in assay [4].
For the compound `COC(=O)N[C@@H]1CC[C@@H](n2c(=O)n(C)c3cnc(Nc4cccc(OC5CCOCC5)n4)cc32)C1` [Example 37, Methyl ((1R,3R)-3-(3-methyl-2-oxo-6-((6-((tetrahydro-2H-pyran-4-yl)oxy)pyridin-2-yl)amino)-2,3-dihydro-1H-imidazo[4,5-c]pyridin-1-yl)cyclopentyl)carbamate], the IC50 is greater than 1000 nM in assay [1], no more than 10 nM in assay [2], 10 to 100 nM in assay [3] and greater than 1000 nM in assay [4].
In the case of `COC(=O)N[C@@H]1CC[C@@H](n2c(=O)n(C)c3cnc(Nc4ccc5ncc(-c6cncn6C)n5n4)cc32)C1` [Example 38, Methyl ((1R,3R)-3-(3-methyl-6-((3-(1-methyl-1H-imidazol-5-yl)imidazo[1,2-b]pyridazin-6-yl)amino)-2-oxo-2,3-dihydro-1H-imidazo[4,5-c]pyridin-1-yl)cyclopentyl)carbamate], the IC50 is greater than 1000 nM in assay [1], no more than 10 nM in assay [2], 10 to 100 nM in assay [3] and greater than 1000 nM in assay [4].
Consider `COC(=O)Nc1cc(Nc2cc3c(cn2)n(C)c(=O)n3C2[C@H]3CN(C(=O)OC)C[C@@H]23)cc(-c2cnn(C)c2)c1` (stereo partly drawn) [Example 39, Methyl (1R,5S)-6-(6-((3-((methoxycarbonyl)amino)-5-(1-methyl-1H-pyrazol-4-yl)phenyl)amino)-3-methyl-2-oxo-2,3-dihydro-1H-imidazo[4,5-c]pyridin-1-yl)-3-azabicyclo[3.1.0]hexane-3-carboxylate], for which the IC50 in assay [1] was greater than 1000 nM; in assay [2], 100 to 500 nM; in assay [3], 100 to 500 nM; in assay [4], greater than 1000 nM.
As to `COC(=O)Nc1cc(Nc2cc3c(cn2)n(C)c(=O)n3C2CC3CC2CN3C(C)=O)cc(-c2cnn(C)c2)c1` (centres unmarked) [Example 40, Methyl (3-((1-(2-acetyl-2-azabicyclo[2.2.1]heptan-5-yl)-3-methyl-2-oxo-2,3-dihydro-1H-imidazo[4,5-c]pyridin-6-yl)amino)-5-(1-methyl-1H-pyrazol-4-yl)phenyl)carbamate], the IC50 was greater than 1000 nM in assay [1], 10 to 100 nM in assay [2], 10 to 100 nM in assay [3] and greater than 1000 nM in assay [4].
As for `COC(=O)N[C@@H]1CC[C@@H](n2c(=O)n(C)c3cnc(Nc4cc(NS(=O)(=O)C5CC(F)(F)C5)cc(C5CCOCC5)c4)cc32)C1` [Example 41, Methyl ((1R,3R)-3-(6-((3-((3,3-difluorocyclobutane)-1-sulfonamido)-5-(tetrahydro-2H-pyran-4-yl)phenyl)amino)-3-methyl-2-oxo-2,3-dihydro-1H-imidazo[4,5-c]pyridin-1-yl)cyclopentyl)carbamate], the IC50 in assay [1] is greater than 1000 nM; in assay [2] it was 10 to 100 nM; in assay [3] it was 10 to 100 nM; in assay [4] it was greater than 1000 nM.
In the case of `COC(=O)Nc1cc(Nc2cc3c(cn2)n(C)c(=O)n3C2CCC(C)(NC(=O)OC)CC2)cc(-c2cnn(C)c2)c1` (centres unmarked) [Example 42, Methyl (3-((1-(4-((methoxycarbonyl)amino)-4-methylcyclohexyl)-3-methyl-2-oxo-2,3-dihydro-1H-imidazo[4,5-c]pyridin-6-yl)amino)-5-(1-methyl-1H-pyrazol-4-yl)phenyl)carbamate], the IC50 in assay [1] is greater than 1000 nM; in assay [2], 10 to 100 nM; in assay [3], 10 to 100 nM; in assay [4], greater than 1000 nM.
In the case of `COCCOC(=O)N[C@@H]1CC[C@@H](n2c(=O)n(C)c3cnc(Nc4cc(NC(=O)OC5CCC5)cc(-c5cnn(C)c5)c4)cc32)C1` [Example 43, 2-Methoxyethyl ((1R,3R)-3-(6-((3-((cyclobutoxycarbonyl)amino)-5-(1-methyl-1H-pyrazol-4-yl)phenyl)amino)-3-methyl-2-oxo-2,3-dihydro-1H-imidazo[4,5-c]pyridin-1-yl)cyclopentyl)carbamate], the IC50 in assay [1] is greater than 1000 nM; in assay [2], 10 to 100 nM; in assay [3], 10 to 100 nM; in assay [4], greater than 1000 nM.
As for `COC(=O)N[C@@H]1CC[C@@H](n2c(=O)n(C)c3cnc(Nc4cc(NC(=O)OC5CCC5)cc(C5CCOCC5)c4)cc32)C1` [Example 44, Methyl ((1R,3R)-3-(6-((3-((cyclobutoxycarbonyl)amino)-5-(tetrahydro-2H-pyran-4-yl)phenyl)amino)-3-methyl-2-oxo-2,3-dihydro-1H-imidazo[4,5-c]pyridin-1-yl)cyclopentyl)carbamate], the IC50 in assay [1], in assay [2], in assay [3] and in assay [4] was greater than 1000 nM in each case.
Regarding `Cn1cc(-c2cc(NC(=O)OC3CCC3)cc(Nc3cc4c(cn3)n(C)c(=O)n4[C@@H]3CC[C@@H](NC(=O)OC4CCC4)C3)c2)cn1` [Example 45, Cyclobutyl ((1R,3R)-3-(6-((3-((cyclobutoxycarbonyl)amino)-5-(1-methyl-1H-pyrazol-4-yl)phenyl)amino)-3-methyl-2-oxo-2,3-dihydro-1H-imidazo[4,5-c]pyridin-1-yl)cyclopentyl)carbamate], the IC50 in assay [1] was greater than 1000 nM; in assay [2], 10 to 100 nM; in assay [3], 10 to 100 nM; in assay [4], greater than 1000 nM.
`CCOC(=O)N[C@@H]1CC[C@@H](n2c(=O)n(C)c3cnc(Nc4cc(NC(=O)OC5CCC5)cc(-c5cnn(C)c5)c4)cc32)C1` [Example 46, Ethyl ((1R,3R)-3-(6-((3-((cyclobutoxycarbonyl)amino)-5-(1-methyl-1H-pyrazol-4-yl)phenyl)amino)-3-methyl-2-oxo-2,3-dihydro-1H-imidazo[4,5-c]pyridin-1-yl)cyclopentyl)carbamate]: the IC50 in assay [1] is greater than 1000 nM; in assay [2] it was 10 to 100 nM; in assay [3] it was 10 to 100 nM; in assay [4], greater than 1000 nM.
For the compound `C#CCOC(=O)N[C@@H]1CC[C@@H](n2c(=O)n(C)c3cnc(Nc4cc(NC(=O)OC5CCC5)cc(-c5cnn(C)c5)c4)cc32)C1` [Example 47, Prop-2-yn-1-yl ((1R,3R)-3-(6-((3-((cyclobutoxycarbonyl)amino)-5-(1-methyl-1H-pyrazol-4-yl)phenyl)amino)-3-methyl-2-oxo-2,3-dihydro-1H-imidazo[4,5-c)pyridin-1-yl)cyclopentyl)carbamate], the IC50 in assay [1] is greater than 1000 nM; in assay [2] it was no more than 10 nM; in assay [3] it was no more than 10 nM; in assay [4], greater than 1000 nM.

These data come from US20240317744A1, “Bicyclic Ureas As Kinase Inhibitors” (Incyte Corporation, priority 2023, published 2024).
